Patent publication US20260325533A1, “CDK INHIBITOR COMPOUNDS” (ALEKSIA THERAPEUTICS, INC., priority 2023, published 2026)
Like-named read-outs stand apart in the source and are kept apart here.

Experiments:
[1] = target: CDK2/CCNE1 (Homo sapiens, UniProt P24941); test: CDK2 homogeneous time-resolved fluorescence (HTRF) kinase assay; type: biochemical
Protocol: (§1) A CDK homogeneous time-resolved fluorescence (HTRF) assay was used to assess the potency of the compounds described herein.
(§2) To an untreated 384-well microtiter plate (ProxiPlate) was added 100 nL 100×test compound in DMSO and 5 μL 2×CDK enzyme in assay buffer (50 mM HEPES, 1 mM EGTA, 10 mM MgCl2, 0.01% Tween 20, 2 mM DTT). The plate was centrifuged at 800 RPM for 1 min then incubated for 20 min at 23 °C. 2.5 μL per well of 4×ATP and 2.5 μL 4×ULight™-eIF4E-binding protein 1 (Thr37/46) Peptide substrate were added to all wells. After addition, the plates were centrifuged at 800 RPM for 1 min. The plates were incubated at 23 °C for 60 min. 5 μL per well 4×EDTA solution were added to each well to stop the reaction. 5 μL 4×LANCE Ultra Europium-anti-phospho-eIF4E-binding protein 1 (Thr37/46) antibody were added to each well and the plate was centrifuged for 1 min at 800 RPM. The plate was incubated for 60 min at 23 °C. Fluorescence was read at 340 nm excitation and 665 nm emission on an En Vision 2105 fluorescence reader. The final concentrations of reagents in the activity assay were 3 nM CDK2/CCNE1, 1 mM ATP, 50 nM ULight™-eIF4E-binding protein 1 (Thr37/46) Peptide substrate, 1% DMSO, 10 mM EDTA, and 2 nM LANCE Ultra Europium-anti-phospho-eIF4E-binding protein 1 (Thr37/46).
(§3) Dose-response titrations were conducted by using an 11-point, half-logarithmic serial dilution scheme typically starting at 10 μM. Signals were reported as fluorescence units at 665 nm or the ratio of fluorescence units at 665 nm/fluorescence units at 615 nm. Signals are referred to below as “Lance signals”.
(§4) Using this assay, the IC50 values of example compounds were determined. Table 3 illustrates the IC50 for various Example compounds of Formula IA. Table 4 illustrates the IC50 for various other Example compounds of Formula I. ND=not determined.

[2] = target: CDK1/CCNB1 (Homo sapiens, UniProt P06493); test: CDK1 homogeneous time-resolved fluorescence (HTRF) kinase assay; type: biochemical
CDK1/CCNB1, sequence (P06493 whole entry): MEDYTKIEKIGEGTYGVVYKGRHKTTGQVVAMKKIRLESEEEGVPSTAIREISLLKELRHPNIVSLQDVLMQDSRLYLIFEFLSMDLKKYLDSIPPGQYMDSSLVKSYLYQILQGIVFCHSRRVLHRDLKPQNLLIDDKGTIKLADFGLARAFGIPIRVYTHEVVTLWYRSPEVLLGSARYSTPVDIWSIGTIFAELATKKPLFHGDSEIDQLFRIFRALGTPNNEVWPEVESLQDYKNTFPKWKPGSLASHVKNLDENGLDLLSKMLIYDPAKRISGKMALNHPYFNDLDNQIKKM
CDK1/CCNB1, sequence (P14635 whole entry partner): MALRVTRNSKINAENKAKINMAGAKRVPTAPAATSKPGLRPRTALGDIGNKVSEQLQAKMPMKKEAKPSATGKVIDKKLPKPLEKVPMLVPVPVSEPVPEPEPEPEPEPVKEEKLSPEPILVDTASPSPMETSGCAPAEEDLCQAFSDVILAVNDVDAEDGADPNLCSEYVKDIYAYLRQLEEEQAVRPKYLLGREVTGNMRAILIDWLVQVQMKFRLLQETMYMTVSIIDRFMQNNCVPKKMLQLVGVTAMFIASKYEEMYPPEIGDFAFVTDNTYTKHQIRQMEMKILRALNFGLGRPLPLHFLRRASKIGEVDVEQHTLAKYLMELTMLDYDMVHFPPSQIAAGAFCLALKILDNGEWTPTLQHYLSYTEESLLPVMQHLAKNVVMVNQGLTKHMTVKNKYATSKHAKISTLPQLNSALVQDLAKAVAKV
Protocol: as §1
as §2, with “were 0.5” for “were 3”, “nM CDK1/CCNB1,” for “nM CDK2/CCNE1,”
as §3, §4

[3] = CDK2/CCNE, 25-250 nM marked x, read-out: CDK2/CCNE IC50 25-250 nM
[4] = CDK1/CCNB, >250 nM marked x, read-out: CDK1/CCNB IC50 >250 nM
[5] = CDK2/CCNE, >250 nM marked x, read-out: CDK2/CCNE IC50 >250 nM
[6] = CDK1/CCNB, <25 nM, read-out: CDK1/CCNB IC50 <25 nM

| IC50 [1, 3] | IC50 [2, 4] | IC50 [1, 5] | SMILES | further results |
| --- | --- | --- | --- | --- |
| 25 to 250 nM | > 250 nM | – | C=CS(=O)(=O)c1ccc(Nc2cc3c(-c4cc5cn[nH]c5cc4C)nccc3cn2)cc1 [Ex 209, 5-(6-methyl-1H-indazol-5-yl)-N-(4-(vinylsulfonyl)phenyl)-2,6-naphthyridin-3-amine] | – |
| 25 to 250 nM | > 250 nM | – | C=CS(=O)(=O)N1CCC(Nc2cc3c(-c4ccc(C#N)nc4)nccc3cn2)CC1 [Ex 109, 5-(7-((1-(vinylsulfonyl)piperidin-4-yl)amino)-2,6-naphthyridin-1-yl)picolinonitrile] | – |
| – | – | – | CS(=O)(=O)c1ccc(Nc2cc3c(C4=CCCCC4)ccnc3cn2)cc1 [Example 951, 4-(cyclohex-1-en-1-yl)-N-(4-(methylsulfonyl)phenyl)-1,7-naphthyridin-6-amine] | IC50 ([1]; 3 nM CDK2/CCNE1, 1 mM ATP, read-out: CDK2/CCNE IC50 >250 nM): > 250 nM; IC50 ([2]; 0.5 nM CDK1/CCNB1, 1 mM ATP, read-out: CDK1/CCNB IC50 >250 nM): > 250 nM |
| 25 to 250 nM | > 250 nM | – | C=CS(=O)(=O)c1ccc(Nc2cc3c(N4CCC(O)C4)nccc3cn2)cc1 (racemic) [Ex 211, 1-(7-((4-(vinylsulfonyl)phenyl)amino)-2,6-naphthyridin-1-yl)pyrrolidin-3-ol] | – |
| – | – | – | Cc1cc2c(cnn2C)cc1-c1nccc2cnc(NC3CCN(S(C)(=O)=O)CC3)cc12 [Ex 262, 5-(1,6-dimethyl-1H-indazol-5-yl)-N-(1-(methylsulfonyl)piperidin-4-yl)-2,6-naphthyridin-3-amine] | IC50 ([1]; CDK2/CCNE, <25 nM, read-out: CDK2/CCNE IC50 <25 nM): < 25 nM; IC50 ([2]; CDK1/CCNB, 25-250 nM marked x, read-out: CDK1/CCNB IC50 25-250 nM): 25 to 250 nM |
| 25 to 250 nM | > 250 nM | – | CS(=O)(=O)N1CCC(Nc2cc3c(-c4ccncc4)nccc3cn2)CC1 [Ex 83, N-(1-(methylsulfonyl)piperidin-4-yl)-5-(pyridin-4-yl)-2,6-naphthyridin-3-amine] | – |
| – | > 250 nM | > 250 nM | CS(=O)(=O)N1CCC(Nc2cc3c(-c4cnc(N)nc4)nccc3cn2)CC1 [Ex 66, 5-(2-aminopyrimidin-5-yl)-N-(1-(methylsulfonyl)piperidin-4-yl)-2,6-naphthyridin-3-amine] | – |
| 25 to 250 nM | > 250 nM | – | CS(=O)(=O)N1CCC(Nc2cc3c(-c4ccccn4)nccc3cn2)CC1 [Example 8, N-(1-(methylsulfonyl)piperidin-4-yl)-5-(pyridin-2-yl)-2,6-naphthyridin-3-amine] | – |
| 25 to 250 nM | > 250 nM | – | COc1nccc2cnc(NC3CCN(S(C)(=O)=O)CC3)cc12 [Example 5, 5-methoxy-N-(1-(methylsulfonyl)piperidin-4-yl)-2,6-naphthyridin-3-amine] | – |
| – | > 250 nM | > 250 nM | CS(=O)(=O)N1CCC(Nc2cc3c(N4CCS(=O)(=O)CC4)nccc3cn2)CC1 [Ex 59, 4-(7-((1-(methylsulfonyl)piperidin-4-yl)amino)-2,6-naphthyridin-1-yl)thiomorpholine 1,1-dioxide] | – |
| – | > 250 nM | > 250 nM | C=CC(=O)N1CCC(c2nccc3cnc(Nc4ccc(S(C)(=O)=O)cc4)cc23)CC1 [Ex 155, 1-(4-(7-((4-(methylsulfonyl)phenyl)amino)-2,6-naphthyridin-1-yl)piperidin-1-yl)prop-2-en-1-one] | – |
| – | > 250 nM | > 250 nM | COc1ccc(CN2CCC(c3nccc4cnc(Nc5ccc(S(C)(=O)=O)cc5)cc34)CC2)cc1 [Ex 173, 5-(1-(4-methoxybenzyl)piperidin-4-yl)-N-(4-(methylsulfonyl)phenyl)-2,6-naphthyridin-3-amine] | – |
| 25 to 250 nM | > 250 nM | – | N#CC1CCN(c2nccc3cnc(Nc4ccc(CCO)cc4)cc23)CC1 [Ex 133, 1-(7-((4-(2-hydroxyethyl)phenyl)amino)-2,6-naphthyridin-1-yl)piperidine-4-carbonitrile] | – |
| – | > 250 nM | > 250 nM | C=CS(=O)(=O)N1CCC(Nc2cc3c(N4CCCCC4)nccc3cn2)C1 (centres unmarked) [Example 9, 5-(piperidin-1-yl)-N-(1-(vinylsulfonyl)pyrrolidin-3-yl)-2,6-naphthyridin-3-amine] | – |
| 25 to 250 nM | > 250 nM | – | Cc1c(-c2nccc3cnc(Nc4ccc(S(C)(=O)=O)cc4)cc23)ccc2nn(CCC#N)cc12 [Ex 197, 3-(4-methyl-5-(7-((4-(methylsulfonyl)phenyl)amino)-2,6-naphthyridin-1-yl)-2H-indazol-2-yl)propanenitrile] | – |
| 25 to 250 nM | > 250 nM | – | CS(=O)(=O)c1ccc(Nc2cc3c(N4CCCCC4)nc(C=O)cc3cn2)cc1 [Ex 186, 7-((4-(methylsulfonyl)phenyl)amino)-1-(piperidin-1-yl)-2,6-naphthyridine-3-carbaldehyde] | – |
| – | > 250 nM | > 250 nM | CS(=O)(=O)c1ccc(Nc2cc3c(C4CCN(Cc5cccnc5)CC4)nccc3cn2)cc1 [Ex 174, N-(4-(methylsulfonyl)phenyl)-5-(1-(pyridin-3-ylmethyl)piperidin-4-yl)-2,6-naphthyridin-3-amine] | – |
| 25 to 250 nM | > 250 nM | – | CS(=O)(=O)N1CCC(Nc2cc3c(-c4cccnc4)nccc3cn2)CC1 [Ex 67, N-(1-(methylsulfonyl)piperidin-4-yl)-5-(pyridin-3-yl)-2,6-naphthyridin-3-amine] | – |
| – | > 250 nM | > 250 nM | CS(=O)(=O)N1CCC(Nc2cc3c(C(=O)NC4CC4)nccc3cn2)CC1 [Ex 93, N-cyclopropyl-7-((1-(methylsulfonyl)piperidin-4-yl)amino)-2,6-naphthyridine-1-carboxamide] | – |
| – | > 250 nM | > 250 nM | C=CS(=O)(=O)c1ccc(Nc2cc3c(-c4cccc(OC(F)(F)F)c4)nccc3cn2)cc1 [Ex 161, 5-(3-(trifluoromethoxy)phenyl)-N-(4-(vinylsulfonyl)phenyl)-2,6-naphthyridin-3-amine] | – |
| – | > 250 nM | > 250 nM | C=CCN1CCC(c2nccc3cnc(Nc4ccc(S(C)(=O)=O)cc4)cc23)CC1 [Ex 171, 5-(1-allylpiperidin-4-yl)-N-(4-(methylsulfonyl)phenyl)-2,6-naphthyridin-3-amine] | – |
| 25 to 250 nM | > 250 nM | – | CCN1CCC(c2nccc3cnc(Nc4ccc(S(C)(=O)=O)cc4)cc23)CC1 [Ex 152, 5-(1-ethylpiperidin-4-yl)-N-(4-(methylsulfonyl)phenyl)-2,6-naphthyridin-3-amine] | – |
| – | > 250 nM | – | CS(=O)(=O)N1CCC(Nc2cc3c(C(=O)N4CCCCC4)nccc3cn2)CC1 [Ex 97, (7-((1-(methylsulfonyl)piperidin-4-yl)amino)-2,6-naphthyridin-1-yl)(piperidin-1-yl)methanone] | – |
| – | – | – | N=S(=O)(c1ccc(Nc2cc3c(C#Cc4ccc5c(c4)NC(=O)C54CC4)nccc3cn2)cc1)C1CC1 (single isomer, unassigned) [Ex 307, 6'-((7-((4-(cyclopropanesulfonimidoyl)phenyl)amino)-2,6-naphthyridin-1-yl)ethynyl)spiro[cyclopropane-1,3'-indolin]-2'-one] | IC50 [2, 6]: < 25 nM |
| – | – | – | CC(C)S(=N)(=O)c1ccc(Nc2cc3c(C#Cc4ccc5c(c4)NC(=O)C5(C)CO)nccc3cn2)cc1 (single isomer, unassigned) [Ex 331, 3-(hydroxymethyl)-3-methyl-6-((7-((4-(propan-2-ylsulfonimidoyl)phenyl)amino)-2,6-naphthyridin-1-yl)ethynyl)indolin-2-one] | IC50 [2, 6]: < 25 nM |
